Measured values taken from ChEMBL document CHEMBL1275250, “In vitro activity of azithromycin against nontyphoidal Salmonella enterica” (2010).
In brackets after ≈: the same amount, converted by molar mass.

Legend:
[1] = Antibacterial activity against quinolone-susceptible Salmonella enterica serovar newport s2099 by agar dilution method; type: functional, Salmonella enterica subsp. enterica serovar Newport
[2] = Antibacterial activity against quinolone-resistant Salmonella enterica serovar stanley s2018 by agar dilution method; type: functional, Salmonella enterica subsp. enterica serovar Stanley
[3] = Antibacterial activity against quinolone-susceptible Salmonella enterica serovar rissen s2021 by agar dilution method; type: functional, Salmonella enterica subsp. enterica serovar Rissen
[4] = Antibacterial activity against quinolone-resistant Salmonella enterica serovar stanley s2085 by agar dilution method; type: functional, Salmonella enterica subsp. enterica serovar Stanley
[5] = Antibacterial activity against quinolone-resistant Salmonella enterica serovar stanley s2086 by agar dilution method; type: functional, Salmonella enterica subsp. enterica serovar Stanley
[6] = Antibacterial activity against quinolone-susceptible Salmonella enterica serovar poona s2181 by agar dilution method; type: functional, Salmonella enterica subsp. enterica serovar Poona
Salmonella typhimurium [7] = experiment: Antibacterial activity against quinolone-susceptible Salmonella enterica serovar Typhimurium s2137 by agar dilution method; type: functional, Salmonella enterica subsp. enterica serovar Typhimurium
[8] = Antibacterial activity against quinolone-susceptible Salmonella enterica serovar virchow s2195 by agar dilution method; type: functional, Salmonella enterica subsp. enterica serovar Virchow
[9] = Antibacterial activity against quinolone-resistant Salmonella enterica serovar stanley s2236 by agar dilution method; type: functional, Salmonella enterica subsp. enterica serovar Stanley
[10] = Antibacterial activity against quinolone-resistant Salmonella enterica serovar stanley s2265 by agar dilution method; type: functional, Salmonella enterica subsp. enterica serovar Stanley
[11] = Antibacterial activity against quinolone-resistant Salmonella enterica serovar stanley s2280 by agar dilution method; type: functional, Salmonella enterica subsp. enterica serovar Stanley
Salmonella typhimurium [12] = experiment: Antibacterial activity against quinolone-susceptible Salmonella enterica serovar Typhimurium s2389 by agar dilution method; type: functional, Salmonella enterica subsp. enterica serovar Typhimurium
Salmonella typhimurium [13] = experiment: Antibacterial activity against quinolone-susceptible Salmonella enterica serovar Typhimurium s2391 by agar dilution method; type: functional, Salmonella enterica subsp. enterica serovar Typhimurium
[14] = Antibacterial activity against quinolone-susceptible Salmonella enterica serovar blockley s2439 by agar dilution method; type: functional, Salmonella enterica subsp. enterica serovar Blockley
[15] = Antibacterial activity against quinolone-susceptible Salmonella enterica serovar bredeney s2477 by agar dilution method; type: functional, Salmonella enterica subsp. enterica serovar Bredeney
[16] = Antibacterial activity against quinolone-susceptible Salmonella enterica serovar blockley s2608 by agar dilution method; type: functional, Salmonella enterica subsp. enterica serovar Blockley
[17] = Antibacterial activity against quinolone-susceptible Salmonella enterica serovar emek s2635 by agar dilution method; type: functional, Salmonella enterica subsp. enterica serovar Emek
[18] = Antibacterial activity against quinolone-susceptible Salmonella enterica serovar blockley s2768 by agar dilution method; type: functional, Salmonella enterica subsp. enterica serovar Blockley
[19] = Antibacterial activity against quinolone-susceptible Salmonella enterica serovar saintpaul s2829 by agar dilution method; type: functional, Salmonella enterica subsp. enterica serovar Saintpaul
[20] = Antibacterial activity against quinolone-susceptible Salmonella enterica serovar stanley s2868 by agar dilution method; type: functional, Salmonella enterica subsp. enterica serovar Stanley
[21] = Antibacterial activity against quinolone-susceptible Salmonella enterica serovar hvittingfoss s2948 by agar dilution method; type: functional, Salmonella enterica subsp. enterica serovar Hvittingfoss
[22] = Antibacterial activity against quinolone-susceptible Salmonella enterica serovar rissen s3141 by agar dilution method; type: functional, Salmonella enterica subsp. enterica serovar Rissen
Salmonella typhimurium [23] = experiment: Antibacterial activity against quinolone-susceptible Salmonella enterica serovar Typhimurium s3082 by agar dilution method; type: functional, Salmonella enterica subsp. enterica serovar Typhimurium
Salmonella enteritidis = experiment: Antibacterial activity against quinolone-susceptible Salmonella enterica serovar enteritidis s3139 by agar dilution method; type: functional, Salmonella enterica subsp. enterica serovar Enteritidis
[24] = Antibacterial activity against Salmonella enterica serovar blockley harboring G235A mutation in rlpD gene by agar dilution method; type: functional, Salmonella enterica subsp. enterica serovar Blockley
[25] = Antibacterial activity against Salmonella enterica subsp. enterica serovar Saintpaul harboring G235A mutation in rlpD gene by agar dilution method; type: functional
Salmonella typhimurium [26] = experiment: Antibacterial activity against Salmonella enterica serovar Typhimurium harboring G235A mutation in rlpD gene by agar dilution method; type: functional, Salmonella enterica subsp. enterica serovar Typhimurium
[27] = Antibacterial activity against Salmonella enterica serovar montevideo harboring rlpD GC379T and rlpV G25A mutant gene by agar dilution method; type: functional, Salmonella enterica subsp. enterica serovar Montevideo
Salmonella enterica = experiment: Antibacterial activity against quinolone-resistant Salmonella enterica; type: functional

Which results are given for `CC[C@H]1OC(=O)[C@H](C)[C@@H](O[C@H]2C[C@@](C)(OC)[C@@H](O)[C@H](C)O2)[C@H](C)[C@@H](O[C@@H]2O[C@H](C)C[C@H](N(C)C)[C@H]2O)[C@](C)(O)C[C@@H](C)CN(C)[C@H](C)[C@@H](O)[C@]1(C)O` [AZITHROMYCIN]?
MIC [1]: 32 mg/L (≈ 42.7 µM); MIC [2]: 64 mg/L (≈ 85.4 µM); MIC [3]: > 128 mg/L; MIC [4]: 64 mg/L (≈ 85.4 µM); MIC [5]: 64 mg/L (≈ 85.4 µM); MIC [6]: 32 mg/L (≈ 42.7 µM); MIC (Salmonella typhimurium [7]): 128 mg/L (≈ 171 µM); MIC [8]: > 128 mg/L; MIC [9]: 32 mg/L (≈ 42.7 µM); MIC [10]: 128 mg/L (≈ 171 µM); MIC [11]: 64 mg/L (≈ 85.4 µM); MIC (Salmonella typhimurium [12]): 128 mg/L (≈ 171 µM); MIC (Salmonella typhimurium [13]): 128 mg/L (≈ 171 µM); MIC [14]: 64 mg/L (≈ 85.4 µM); MIC [15]: > 128 mg/L; MIC [16]: 64 mg/L (≈ 85.4 µM); MIC [17]: 64 mg/L (≈ 85.4 µM); MIC [18]: 128 mg/L (≈ 171 µM); MIC [19]: 64 mg/L (≈ 85.4 µM); MIC [20]: 128 mg/L (≈ 171 µM); MIC [21]: 128 mg/L (≈ 171 µM); MIC [22]: 64 mg/L (≈ 85.4 µM); MIC (Salmonella typhimurium [23]): 128 mg/L (≈ 171 µM); MIC (Salmonella enteritidis): 128 mg/L (≈ 171 µM); MIC [24]: 64 mg/L (≈ 85.4 µM); MIC [25]: 64 mg/L (≈ 85.4 µM); MIC (Salmonella typhimurium [26]): 128 mg/L (≈ 171 µM); MIC [27]: 4 mg/L (≈ 5.34 µM); MIC (Salmonella enterica): ≥ 32 mg/L

Which results are given for `O=C(O)c1cn(C2CC2)c2cc(N3CCNCC3)c(F)cc2c1=O` [CIPROFLOXACIN]?
MIC [24]: 0.25 mg/L (≈ 0.754 µM); MIC [25]: 0.03 mg/L (≈ 0.0905 µM); MIC (Salmonella typhimurium [26]): 0.06 mg/L (≈ 0.181 µM); MIC [27]: 0.5 mg/L (≈ 1.51 µM); MIC (Salmonella enterica): ≥ 0.125 mg/L

Which MIC [24] does the source give for `CC[C@H]1OC(=O)[C@H](C)[C@@H](O[C@H]2C[C@@](C)(OC)[C@@H](O)[C@H](C)O2)[C@H](C)[C@@H](O[C@@H]2O[C@H](C)C[C@H](N(C)C)[C@H]2O)[C@](C)(O)C[C@@H](C)C(=O)[C@H](C)[C@@H](O)[C@]1(C)O` [ERYTHROMYCIN] here?
Its MIC is greater than 128 mg/L.

And the MIC [25]?
Its MIC is greater than 128 mg/L.

What about the MIC (Salmonella typhimurium [26]) of the same compound?
Its MIC is greater than 64 mg/L.

And the MIC [27]?
The MIC was greater than 64 mg/L.

Which results are given for `CCn1cc(C(=O)O)c(=O)c2ccc(C)nc21` [NALIDIXIC ACID]?
MIC [24]: > 512 mg/L; MIC [25]: 16 mg/L (≈ 68.9 µM); MIC (Salmonella typhimurium [26]): 16 mg/L (≈ 68.9 µM); MIC [27]: 16 mg/L (≈ 68.9 µM); MIC (Salmonella enterica): ≥ 32 mg/L

Which MIC [24] does the source give for `CC[C@H]1OC(=O)[C@H](C)C(=O)[C@H](C)[C@@H](O[C@@H]2O[C@H](C)C[C@H](N(C)C)[C@H]2O)[C@](C)(OC)C[C@@H](C)C(=O)[C@H](C)[C@H]2N(CCCCn3cnc(-c4cccnc4)c3)C(=O)O[C@]12C` [TELITHROMYCIN] here?
The MIC was greater than 128 mg/L.

And the MIC [25]?
The MIC was greater than 128 mg/L.

And the MIC (Salmonella typhimurium [26])?
The MIC was greater than 128 mg/L.

And the MIC [27]?
Its MIC is 4 mg/L (≈ 4.93 µM).
